One molecule from patent EP0609437B1, “NOVEL SPHINGOGLYCOLIPID AND USE THEREOF” (KIRIN BEER KABUSHIKI KAISHA, priority 1991, dated 1993) can be followed below.

The subject of one data set is B16 mouse melanoma cells. Description: Anti-tumor activity against B16 mouse melanoma inoculated subcutaneously. The class given is in vivo. The note with it: Mus musculus, iv, 480 h; maximum tumor growth inhibition rate during the test period of 20 days; female BDF1 mice; 0.1 mg/kg intravenously on days 1, 5 and 9 after s.c. inoculation; read-out: TGIR (%). How it is done: Anti-tumor activity against B16 mouse melanoma inoculated subcutaneously.
Experiment was carried out with the groups of 6 female BDF1 mice (6 weeks old) purchased from Japan SLC Inc., B16 mouse melanoma cells (1 × 10^6 cells/mouse) were inoculated subcutaneously in the rear region of mice, and the sample prepared in a concentration of 0.1 mg/kg was administered intravenously at a dose of 0.2 ml/20g/mouse after 1, 5 and 9 days from inoculation (the day of inoculation being set as 0 day). The volume of the tumor at the hypodermis of the rear region [(longer diameter × shorter diameter × height)/2] was measured on 8, 12, 16 and 20 days after inoculation, and the tumor growth inhibition rate (TGIR) of each sample was determined. TGIR was calculated from the following equation: TGIR (%) = (1 - T/C) × 100 [formula] wherein C represents a tumor volume of the control group and T represents a tumor volume of the group to which the sample was administered.
In this connection, respective test runs were divided by broken lines.

Data set [1] relates to spleen cells of C57BL/6 mouse and pancreatic cells of BALB/c mouse. Description: Lymphocyte mixed culture reaction (mouse MLR), uptake of 3H-TdR. The class given is cell-based. The settings on record: Mus musculus, Lymphocyte, 50 h, cultured for 42 hours, then 8 hours with 3H-TdR, read-out: Uptake of ^3H-TdR (% of control). How it is done: Experiment was carried out with the spleen cells of C57BL/6 mouse which had been treated with mitomycin C (50 µg/ml, 30 min) as the stimulator and with the […] cells of BALB/c mouse as the responder. These […] cells were suspended to a concentration of 2 × 10^6 cells/ml with a culture medium of 10% FCS RPMI 1640, respectively. These cells (50 µl/well) and a sample (10 µl/well) were plated in a 96 well round-bottomed plate and cultured for 42 hours* under the condition of 37°C and 5% CO2. ^3H-thymidine (^3H-TdR) was added in a dose of 0.5 µCi/well. After 8 hours, the cells were harvested and subjected to the measurement of the uptake of ^3H-TdR by a liquid scintillation counter.
*The samples of the compounds 32, 33 and 34 were cultured for 4 days.

Data set [2] can be described thus: Acute toxicity, single intravenous administration. The class given is in vivo. The note with it: rat, in vivo; single intravenous dose, male Crj:CD rats, observed for 7 days. How it is done:
(§1) The compound 5 was once administered intravenously in doses of 0.1, 1.0 and 10 mg/kg to the groups of 6 male Crj:CD rats (5 weeks old), and the toxicity tests were conducted for 7 days after the administration of the compound 5.

Another data set relates to male Crj:CD rats. Description: Acute toxicity, single intravenous administration. The class given is in vivo. The settings on record: 7 days. How it is done: as §1

Molecules are shown by their SMILES.

What is called LD50 is the dose expected to kill half of the subjects tested. Regarding `CCCCCCCCCCCCCCC[C@@H](O)[C@H](CO[C@H]1O[C@H](CO)[C@H](O)[C@H](O)[C@H]1O)NC(=O)CCCCCCCCCCCCC` [Compound 5, (2S,3R)-1-(α-D-galactopyranosyloxy)-2-tetradecanoylamino-3-octadecanol], the inhibition in vivo at 0.1 mg/kg in the data set with B16 mouse melanoma cells is 92.1%. Also, the activity at 1 µg/mL in data set [1] (sample concentration 10^0 µg/ml) was 473%. The activity at 0.1 µg/mL in data set [1] (sample concentration 10^-1 µg/ml) was 170%. Further, the activity at 0.01 µg/mL in data set [1] (sample concentration 10^-2 µg/ml) is 153%. This molecule also returned an LD50 at 168 h in data set [2] of at least 10 mg/kg. In the data set with male Crj:CD rats (single intravenous dose of 10 mg/kg), the lethality entry was “not lethal”. In addition, the autopsy findings entry in the data set with male Crj:CD rats (single intravenous doses of 0.1, 1.0 and 10 mg/kg) is recorded as “no abnormality was observed”.
